Data on 8 molecules can be found in patent US20260355196A1, “INHIBITORS AND DEGRADERS OF PIP4K PROTEIN” (Larkspur Biosciences, Inc., priority 2023, published 2026).

Structures are written as SMILES. Some results are limits rather than exact numbers.

The assay has as its target T1, PIP4K2C (Homo sapiens, UniProt Q8TBX8).
T1 sequence (Q8TBX8 1-421): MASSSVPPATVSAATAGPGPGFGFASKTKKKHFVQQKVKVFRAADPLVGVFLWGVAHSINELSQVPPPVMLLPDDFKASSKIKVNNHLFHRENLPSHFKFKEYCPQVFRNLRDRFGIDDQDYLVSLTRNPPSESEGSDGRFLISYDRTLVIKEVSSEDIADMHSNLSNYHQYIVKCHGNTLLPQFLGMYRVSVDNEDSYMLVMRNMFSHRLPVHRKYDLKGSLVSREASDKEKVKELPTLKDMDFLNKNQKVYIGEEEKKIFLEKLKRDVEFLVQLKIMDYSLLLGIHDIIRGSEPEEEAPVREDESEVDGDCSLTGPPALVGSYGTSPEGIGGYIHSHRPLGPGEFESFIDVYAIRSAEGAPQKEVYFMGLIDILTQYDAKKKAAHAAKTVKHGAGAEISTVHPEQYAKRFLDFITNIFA
Put plainly: HiBiT PIP4K2C degradation assay in MOLT-4 cells (endogenous PIP4K2C C-terminally tagged with HiBiT). On the set-up: untagged in primary human PBMCs and monocyte-derived dendritic cells. The note with it: 24 hours incubation, MOLT-4, top concentration 10 micromolar; read-out: HiBIT-degradation MOLT4 PIP4k2C 24 hours DC50. It counts as cell-based. The essentials:
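Luminescent HiBiT lytic readout of residual PIP4K2C-HiBiT (CRISPR knock-in, MOLT-4, phenol red-free RPMI-1640 + 10% FBS). Cells exposed 6 or 24 h at 37 C to compound, top 10 micromolar, 3-fold, 10 points, duplicate. Hill fit (Levenberg-Marquardt) gives DC50.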
On to `O=C1CCC(N2Cc3cc(OC4CCN(C5CCN(CC(=O)N6CCC(Nc7ncc(Cl)c(-c8cccc(-c9ccccc9)c8)n7)CC6)CC5)CC4)ccc3C2=O)C(=O)N1` (centres unmarked) [Compound 87, 3-(5-((1′-(2-(4-((4-([1,1′-biphenyl]-3-yl)-5-chloropyrimidin-2-yl)amino)piperidin-1-yl)-2-oxoethyl)-[1,4′-bipiperidin]-4-yl)oxy)-1-oxoisoindolin-2-yl)piperidine-2,6-dione], for which the DC50 was < 500 nM.
Consider `O=C1CCC(N2Cc3cc(C4CCN(CCN5CCC(C(=O)N6CCC(Nc7ncc(Cl)c(-c8cccc(-c9ccccc9)c8)n7)CC6)CC5)CC4)ccc3C2=O)C(=O)N1` (centres unmarked) [Compound 88, 3-(5-(1-(2-(4-(4-((4-([1,1′-biphenyl]-3-yl)-5-chloropyrimidin-2-yl)amino)piperidine-1-carbonyl)piperidin-1-yl)ethyl)piperidin-4-yl)-1-oxoisoindolin-2-yl)piperidine-2,6-dione], for which the DC50 is < 500 nM.
On to `O=C1CCC(N2Cc3cc(OC4CCN(CCN5CCC(C(=O)N6CCC(Nc7ncc(Cl)c(-c8cccc(-c9ccccc9)c8)n7)CC6)CC5)CC4)ccc3C2=O)C(=O)N1` (centres unmarked) [Compound 89, 3-(5-((1-(2-(4-(4-((4-([1,1′-biphenyl]-3-yl)-5-chloropyrimidin-2-yl)amino)piperidine-1-carbonyl)piperidin-1-yl)ethyl)piperidin-4-yl)oxy)-1-oxoisoindolin-2-yl)piperidine-2,6-dione], for which the DC50 is < 500 nM.
With `O=C1CCC(N2Cc3cc(OC4CCN(C5CCN(CCC(=O)N6CCC(Nc7ncc(Cl)c(-c8cccc(-c9ccccc9)c8)n7)CC6)CC5)CC4)ccc3C2=O)C(=O)N1` (centres unmarked) [Compound 90, 3-(5-((1′-(3-(4-((4-([1,1′-biphenyl]-3-yl)-5-chloropyrimidin-2-yl)amino)piperidin-1-yl)-3-oxopropyl)-[1,4′-bipiperidin]-4-yl)oxy)-1-oxoisoindolin-2-yl)piperidine-2,6-dione] the figure was < 500 nM.
Regarding `Cn1c(=O)n(C2CCC(=O)NC2=O)c2ccc(C3CCN(C4CCCN(CC(=O)N5CCC(Nc6ncc(Cl)c(-c7cccc(-c8ccc(F)cc8)c7)n6)CC5)C4)CC3)cc21` (centres unmarked) [Compound 275, 3-(5-(1′-(2-(4-((5-chloro-4-(4′-fluoro-[1,1′-biphenyl]-3-yl)pyrimidin-2-yl)amino)piperidin-1-yl)-2-oxoethyl)-[1,3′-bipiperidin]-4-yl)-3-methyl-2-oxo-2,3-dihydro-1H-benzo[d]imidazol-1-yl)piperidine-2,6-dione], the DC50 is < 500 nM.
On to `Cn1c(=O)n(C2CCC(=O)NC2=O)c2ccc(C3CCN(CC4CCN(CC(=O)N[C@H]5CC[C@H](Nc6ncc(Cl)c(-c7cccc(-c8ccc(F)cc8)c7)n6)CC5)CC4)CC3)cc21` (stereo partly drawn) [Compound 276, trans-N-(4-((5-chloro-4-(4′-fluoro-[1,1′-biphenyl]-3-yl)pyrimidin-2-yl)amino)cyclohexyl)-2-(4-((4-(1-(2,6-dioxopiperidin-3-yl)-3-methyl-2-oxo-2,3-dihydro-1H-benzo[d]imidazol-5-yl)piperidin-1-yl)methyl)piperidin-1-yl)acetamide], for which the half-maximal degradation concentration (DC50) is < 500 nM.
With `Cn1nc(C2CCC(=O)NC2=O)c2ccc(C3CCN(CC4CCN(CC(=O)N5CCC(Nc6ncc(Cl)c(-c7cccc(-c8ccc(F)cc8)c7)n6)CC5)CC4)CC3)cc21` (centres unmarked) [Compound 277, 3-(6-(1-((1-(2-(4-((5-chloro-4-(4′-fluoro-[1,1′-biphenyl]-3-yl)pyrimidin-2-yl)amino)piperidin-1-yl)-2-oxoethyl)piperidin-4-yl)methyl)piperidin-4-yl)-1-methyl-1H-indazol-3-yl)piperidine-2,6-dione], the DC50 lay in the range of 500 to 1000 nM.
Consider `Cn1nc(C2CCC(=O)NC2=O)c2ccc(C3CCN(C(=O)C4(O)CCN(CC(=O)N5CCC(Nc6ncc(Cl)c(-c7cccc(-c8ccc(F)cc8)c7)n6)CC5)CC4)CC3)cc21` (centres unmarked) [Compound 278, 3-(6-(1-(1-(2-(4-((5-chloro-4-(4′-fluoro-[1,1′-biphenyl]-3-yl)pyrimidin-2-yl)amino)piperidin-1-yl)-2-oxoethyl)-4-hydroxypiperidine-4-carbonyl)piperidin-4-yl)-1-methyl-1H-indazol-3-yl)piperidine-2,6-dione], for which the DC50 is < 500 nM.

One may read the DC50 as the midpoint of the concentration-degradation curve.
